In US20190060300A1, “Self-Emulsifying Compositions of CB2 Receptor Modulators” (priority 2016, published 2019):

Experiments:
CB2 receptor = CB2 receptor (Homo sapiens, UniProt P34972); settings: Chicca A. et al; cited from earlier work
[1] = Sköld et al. 2006; cited from earlier work
[2] = Dissolution of MH in the SEDDS vehicle of Example 1; format: physicochemical
Method: Preparation of MH in SEDDS vehicle. • 1. The SEDDS vehicle of the oral composition of Example 1 was warmed up separately to 42° C. for 13 min. In order to prepare about 5% (g/vol) MH solution, the vehicle (380 mg) was added to MH (22.8 mg) directly and vortexed for 60 sec to obtain the oral composition. • 2. The SEDDS vehicle of the oral composition of Example 1 was warmed up separately to 52° C. for 15 min. In order to prepare about 5% (g/vol) MH solution, the vehicle (380.18 mg) was added to MH (21.2 mg) directly and vortexed for 100 sec to obtain the oral composition. Then the solution was warmed up to 50° C. for 10 min. Then the solution was warmed up to 57° C. for 13 min and vortexed for 180 sec. • 3. The SEDDS vehicle of the oral composition of Example 1 was warmed up separately to 55° C. for 15 min. In order to prepare about 1% (g/vol) MH solution, the vehicle (396 mg) was added to MH (4 mg) directly and vortexed for 60 sec to obtain the oral composition. Then the solution was warmed up to 55° C. for 10 min and vortexed for 60 sec.

[3] = Dissolution of MH in oral formulations V-01, V-02, V-03; format: physicochemical
Method: The solution of 4-O-methylhonokiol (MH) was prepared in oral formulation according to Table 1 below.

[4] = according to its MSDS; cited from earlier work
[5] = oral and topical administration, Chaves 2008; cited from earlier work
[6] = system: mouse model of schizophrenia (PCP); assay: Forced-swimming test after oral BCP in SEDDS, PCP mouse model of schizophrenia; format: in vivo; settings: gavage twice a week for 3 weeks, adolescent mice
Method: (§1) The mouse model of schizophrenia was established.
(§2) Sterile double-distilled water (DDW) was warmed for […] in a pre-warmed thermobath (35-38° C.). The SEDDS vehicle of the oral composition of Example 1 was warmed up separately to 35-38° C. for 10 min. In order to prepare BCP (5 mg/ml) for a final dose of 10 mg/kg, BCP (5 mg) was added directly into the vehicle (1 ml) and vortexed for 1 min to obtain the oral composition. Then the warmed sterile DDW (4 ml) at 35-38° C. was added at a ratio of 1:5 oral composition: DDW dilution and the diluted composition was vortexed for 1 min. In order to prepare BCP for a final dose of 5 mg/kg, 500 μl of BCP at 5 mg/ml were diluted with 500 μl SEDDS vehicle (1:2 dilution). Then the warmed sterile DDW (4 ml) at 35-38° C. was added at a ratio of 1:5 oral composition. DDW dilution and the diluted composition was vortexed for 1 min.
(§3) BCP (5 mg/kg or 10 mg/kg in diluted self-emulsifying vehicle (Example 1)) was administered to adolescent mice (10 μl/g) by gavage twice a week (on Sunday and Wednesday) for 3 weeks (PND 43-62), a total of 6 injections. Control group and PCP-induced group received by gavage the oral formulation solution without the drug.
Training was conducted for 6 min a day before the test. […] On the test day, the total duration/frequency of immobility and climbing was counted every 2 minutes for 6 minutes. […]

[7] = system: mouse model of schizophrenia (PCP); assay: Open field test after oral BCP in SEDDS, PCP mouse model of schizophrenia; format: in vivo; settings: 5 mg/kg BCP in SEDDS oral formulation, gavage, adolescent mice
Method: as §1, §2
(§4) BCP (5 mg/kg or 10 mg/kg in diluted self-emulsifying vehicle (Example 1)) was administered to adolescent mice (10 μl/g) by gavage twice a week (on Sunday and Wednesday) for 3 weeks (PND 43-62), a total of 6 injections. […]
Each mouse was placed into the center of a clear open Plexiglas Chamber (40 cm*32 cm*30 cm) which its floor was divided to squares of 4 cm×5 cm. […] Ambulation behavior was manually counted for 8 min and data were collected in 2 min intervals.

[8] = system: mouse model of schizophrenia (PCP); assay: Social interaction test in a novel environment after oral BCP in SEDDS, PCP mouse model; format: in vivo; settings: 5 mg/kg BCP in SEDDS oral composition, gavage, adolescent mice
Method: as §1, §2, §4
Each mouse was placed in a novel cage together with a nonaggressive intruder mouse, of the same species, same sex and a similar age. The interaction between the two mice was recorded for 10 minutes with EthoVision software (Noldus). […]

[9] = Body weight of mice treated orally with BCP in SEDDS; format: in vivo; settings: 5 mg/kg BCP in SEDDS oral composition, gavage, adolescent mice
Method: as §3

[10] = system: mouse model of schizophrenia (PCP); assay: Forced-swimming test after oral BCP in canola oil, PCP mouse model of schizophrenia; format: in vivo, mice
Method: as §1
BCP was diluted in canola oil.
BCP (10 mg/kg diluted in canola oil) was administered to adolescent mice (PND 4362) by gavage twice a week (on Sunday and Wednesday) for 3 weeks, a total of 6 gavages. Control group and PCP-induced group received by gavage the oil vehicle.
Training was conducted for 6 min a day before the test. Each mouse was placed into a transparent glass cylinder filled with fresh water at 25° C. On the test day, the total dilation/frequency of immobility and climbing was counted every 2 minutes for 6 minutes. An increased immobility is an index of learning and habituation, therefore a positive behavioral adaptation with a stressful condition.

[11] = air exposed, after 5 weeks; cited from earlier work

Sequence of CB2 receptor (P34972 whole entry): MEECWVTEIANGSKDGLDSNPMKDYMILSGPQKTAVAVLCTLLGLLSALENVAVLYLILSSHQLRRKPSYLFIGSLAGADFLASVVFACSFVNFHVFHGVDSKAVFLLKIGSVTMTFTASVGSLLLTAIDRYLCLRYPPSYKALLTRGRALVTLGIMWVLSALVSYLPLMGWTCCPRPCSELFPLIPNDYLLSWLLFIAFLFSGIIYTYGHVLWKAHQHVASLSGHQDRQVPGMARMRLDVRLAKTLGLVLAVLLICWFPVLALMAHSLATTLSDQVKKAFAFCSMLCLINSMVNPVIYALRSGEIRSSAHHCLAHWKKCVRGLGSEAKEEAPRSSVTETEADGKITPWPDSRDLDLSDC

Molecule: C=C1CC[C@H]2O[C@]2(C)CC[C@@H]2[C@@H]1CC2(C)C [BCP oxide, Caryophyllene oxide]
- CB2 receptor binding (CB2 receptor): inactivity
- allergenicity [1]: allergen

Molecule: C=CCc1ccc(O)c(-c2ccc(OC)c(CC=C)c2)c1 [MH, 4-O-methylhonokiol]
- dissolution of MH in SEDDS vehicle ([2]; about 1% (g/vol) MH, solution warmed up to 55° C. for 10 min, vortexed 60 sec): dissolved
- dissolution of MH in SEDDS vehicle ([2]; about 1% (g/vol) MH, vehicle warmed to 55° C., vortexed 60 sec): did not dissolve
- dissolution of MH in SEDDS vehicle ([2]; about 5% (g/vol) MH, solution warmed up to 50° C. for 10 min): did not dissolve
- dissolution of MH in SEDDS vehicle ([2]; about 5% (g/vol) MH, solution warmed up to 57° C. for 13 min, vortexed 180 sec): dissolved
- dissolution of MH in SEDDS vehicle ([2]; about 5% (g/vol) MH, vehicle warmed to 42° C., vortexed 60 sec): did not dissolve
- dissolution of MH in SEDDS vehicle ([2]; about 5% (g/vol) MH, vehicle warmed to 52° C., vortexed 100 sec): did not dissolve
- dissolution of MH in oral formulation ([3]; in V-01): dissolved
- dissolution of MH in oral formulation ([3]; in V-02): dissolved
- dissolution of MH in oral formulation ([3]; in V-03): dissolved

Molecule: C/C1=C\CC/C(C)=C/CC(C)(C)/C=C/C1 [alpha-humulene]
- CB2 receptor binding (CB2 receptor): inactivity
- irritancy [4]: skin, eyes and respiratory irritant
- absorption [5]: rapid onset and relatively good absorption

Molecule: trans-(1R,9S)-8-methylene4,11,11 trimethylbicyclo[7.2.0)]undec-4-ene [BCP]
- effect of PCP in the forced-swim test ([6]; 5 mg/kg BCP in SEDDS oral formulation): reversed the effect of PCP
- effect of PCP in the forced-swim test ([6]; 10 mg/kg BCP in SEDDS oral formulation): reversed the effect of PCP
- effect of PCP on activity in the open field test [7]: reversed the effect of PCP
- effect of PCP in the social interaction test [8]: reversed the effect of PCP
- body weight [9]: did not affect their body weight
- effect of 5 mg/kg PCP on the frequency of immobility in the forced swim test ([10]; 10 mg/kg BCP in oil composition (canola oil), gavage twice a week for 3 weeks): did not reverse the effect
- reversing the frequency of climbing in the forced-swim test ([10]; BCP in oil, gavage): ineffective
- original compound consumed by oxidation [11]: ~50%
